# In patent US20250027041A1, “COMPOSITION FOR INDUCING TRANSDIFFERENTIATION AND STEM CELLS TREATED THEREWITH” (YJ CERAPEUTICS INC., priority 2021, published 2025):
# Key:
# CtBP2 = molecular target: T1, CtBP2 (Homo sapiens, UniProt P56545); assay: DARTS assay, CtBP2; format: binding
# T1 construct: expressed in transfected cells; host or cells: human UCB-MSC, lysate
# Experimental: To identify proteins binding to compounds of the present invention, YJ101 (Chemical Formula 1), YJ102 (Chemical Formula 2), and YJ103 (Chemical Formula 3), in human umbilical cord blood-derived mesenchymal stem cells (UCB-MSCs), DART assay was performed. Specifically, UCB-MSCs (Kang Stem Cell, Passage #6) were dispensed into a 100 mm culture dish and incubated in a KSB-3 medium (Cat. K3901, Kang Stem Cell) containing 10% FBS (Cat. 16000044), and then collected and washed with PBS. Thereafter, the cells were added with an IP50 lysis buffer [50 mM Tris-HCl (pH 7.4), 150 mM NaCl, 2 mM MgCl2, and 0.1% NP40], sonicated, and centrifuged at 13,000×g for 10 minutes at 4° C. to obtain the supernatant. The supernatant was added with 1/10 volume of 10×TNC buffer [500 mM Tris-HCl (pH 8.0), 500 mM NaCl, and 100 mM CaCl2)], and protein concentration was measured using a Bradford method. Thereafter, 9 μl of a cell lysate and 1 μl of YJ101 (20 or M), YJ102 (20 or 30 μM), or YJ103 (20 or 40 μM) were mixed in a microcentrifuge tube and incubated at room temperature for 1 hour. A control group was treated with 1 μl of DMSO. After incubation, 1 μl (1 mg/ml) of Pronase (Cat. 10 165 921 001, Roche) diluted to 1 mg/ml using a 1×TNC buffer was added to the microcentrifuge tube and incubated at 37° C. for 15 minutes. After incubation, ⅕ volume of a 5×SDS-PAGE loading buffer was added, heated at 100° C. for 5 minutes, and then SDS-PAGE and Coomassie blue staining were performed. In addition, UCB-MSCs were dispensed at 4×10^5 cells/ml in a 60 mm culture dish, and after 24 hours, 4 μg of FLAG-CtBP1 or FLAG-CtBP2 DNA was transfected using 4 μl of jetPRIME. After 48 hours, the cells were collected, and proteins were extracted and quantified using the same method as above. DARTS assay was performed with the cell lysate of CtBP1 and Y102 labeled with FLAG, and Western blot assay was performed with a flag antibody (Cat. F3165, Sigma).
# CtBP1 = CtBP1 (Homo sapiens, UniProt Q13363); assay: Immunoprecipitation, CtBP1 oligomerization in UCB-MSCs; format: cell-based; design: expressed in transfected cells; host or cells: human UCB-MSC; conditions: YJ102 20 μM; FLAG-CtBP1 + HA-CtBP1, 48 hours
# Experimental: To determine the effect of YJ102 on the regulation of oligomerization of C-terminal Binding Proteins (CtBPs) in human UCB-MSCs, immunoprecipitation analysis was performed. Specifically, UCB-MSCs were dispensed at 4×10^5 cells/ml in a 60 mm culture dish, and the next day, FLAG-CtBP1, HA-CtBP1, FLAG-CtBP2, and HA-CtBP1 were transfected into cells using 4 μl jetPRIME. Thereafter, the cells were treated with YJ102 (stock 30 mM in DMSO) and MTOB (stock 300 mM in DMSO) at 20 μM and 300 μM, respectively (Table 1). After 48 hours of transfection, proteins were extracted in the same manner as in Example 1-1. Protein G agarose slurry was washed with PBS and blocked with 1 ml of 1% BSA, washed with PBS, and added with 1 μg of anti-HA antibody diluted with 1.5 ml of PBS and incubated at 4° C. for 2 hours. Thereafter, the cells were centrifuged at 3,000×g for 2 minutes to remove the supernatant, washed with an IP150 buffer two times, added with 1 μg of the protein extracted above, and incubated at 4° C. overnight. After incubation, the cells were centrifuged at 3,000×g for 2 minutes to remove the supernatant, washed with PBS three times, added with 50 μl of 1 mg/ml HA peptide diluted with PBS, and incubated at room temperature for 10 minutes. […]
compound,measurement,setting,value
CCc1ccc(N(C(=O)COC)c2nc3cc(Cl)ccc3o2)cc1 [YJ102],overexpressed CtBP2 protection from degradation by pronase (DARTS),CtBP2; FLAG-CtBP2 transfected UCB-MSC lysate,protected
same,CtBP2 protection from degradation by pronase (DARTS),"CtBP2; endogenous CtBP2, UCB-MSC lysate",protected
same,binding to CtBP2,CtBP2; human UCB-MSC,bound to CtBP1 and CtBP2
same,oligomerization of CtBP1,CtBP1,induced oligomerization
